In ChEMBL document CHEMBL4196111, “ROR(GMMA)T Modulating Activity for the Treatment of Cancers” (ACS Med Chem Lett, 2018):

Target: T1, Nuclear receptor ROR-gamma (Mus musculus) (UniProt P51450)
T1 sequence (whole entry): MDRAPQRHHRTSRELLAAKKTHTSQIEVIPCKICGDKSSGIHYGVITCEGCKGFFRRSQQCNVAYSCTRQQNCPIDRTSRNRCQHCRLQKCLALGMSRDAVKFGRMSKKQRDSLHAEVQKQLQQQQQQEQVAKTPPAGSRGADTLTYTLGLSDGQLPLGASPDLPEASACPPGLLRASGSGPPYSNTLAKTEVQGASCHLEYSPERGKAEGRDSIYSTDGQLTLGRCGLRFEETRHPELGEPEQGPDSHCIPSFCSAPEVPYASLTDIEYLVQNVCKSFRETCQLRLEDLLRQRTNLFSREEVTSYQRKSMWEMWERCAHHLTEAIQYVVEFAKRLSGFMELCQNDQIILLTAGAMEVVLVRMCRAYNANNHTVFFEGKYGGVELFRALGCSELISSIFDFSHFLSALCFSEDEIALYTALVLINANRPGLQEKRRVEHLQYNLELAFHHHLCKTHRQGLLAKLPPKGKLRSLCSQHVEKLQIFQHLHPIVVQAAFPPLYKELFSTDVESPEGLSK
Assay: Modulation of RORgammat in mouse Th17 cells assessed as […] IL17A production at 3 uM relative to control
Type: cell-based

| Structure (SMILES) | Activity [%] |
| --- | --- |
| CS(=O)(=O)c1ccc(C(CO)NC(=O)c2ccc3c(n2)CCCN3c2cc(C3CC3)nc(C3CC3)c2)cc1 (stereo not drawn) | 533 |
| CCOC(=O)c1cc(S(=O)(=O)CC)ccc1CNC(=O)c1ccc2c(n1)CCCN2c1cc(C2CC2)nc(C2CC2)c1 | 572 |
| CS(=O)(=O)c1ccc(CNC(=O)c2ccc3c(c2)OCCC3c2cc(C3CC3)nc(C3CC3)c2)nc1 (stereo not drawn) | 443 |
| CS(=O)(=O)c1ccc(CNC(=O)c2ccc3c(n2)CCCN3c2cc(C3CC3)nc(C3CC3)c2)c(C(N)=O)c1 | 483 |
| CCS(=O)(=O)c1ccc(CNC(=O)c2ccc3c(n2)CCCN3c2cc(C3CC3)nc(C3CC3)c2)nc1 | 533 |

Results, then the molecule that gave them:

| Activity [%] | Structure (SMILES) |
| --- | --- |
| 373 | CS(=O)(=O)c1ccc(CNC(=O)c2ccc3c(n2)OCCN3c2cc(C3CC3)nc(C3CC3)c2)cc1 |
| 452 | CS(=O)(=O)c1ccc(CNC(=O)c2ccc3c(n2)CCCN3c2cc(C3CC3)nc(C3CC3)c2)nc1 |
| 324 | CS(=O)(=O)c1ccc(CNC(=O)c2ccc3c(n2)OCCN3c2cc(C3CC3)nc(C3CC3)c2)c(F)c1 |
